Reference: patent US11383009B2, “Rapamycin 40-O-cyclic hydrocarbon esters, compositions and methods” (BIOTRONIK AG, priority 2012, dated 2022)
“And” between values parts separate entries of the source, which are not always exact repeats. Equal entries are not always repeated.

Columns and labels:
[1] = Stent coating condition after stent expansion (ductility); conditions: coating of 1:1 weight ratio drug and polylactic acid; compared with rapamycin coating
From the text: In accordance with one of the unexpected advantages of the present invention, it has been discovered that a coating formed with the compounds of the present invention is substantially more ductile, i.e., less prone to cracking, than a coating formed with rapamycin. This property can be seen from the photomicrographs of FIGS. 1 and 2, which show the condition of a stent coating after stent expansion in a stent formed of a 1:1 weight ratio of […] and polylactic acid (FIG. 1) and a coating formed of a 1:1 weight ratio of Compound 1 (Table I) and polylactic acid (FIG. 2). […] An important advantage of the drug compound in this setting is that a coating with a high drug:polymer ratio can be prepared without the need for addition of a separate plasticizer, which may cause toxic responses, affect drug elution rates, and extend development times and increase production costs.

[2] = test system: vascular restenosis, porcine coronary arteries; experiment: Trial B: coated magnesium stents implanted in porcine coronary arteries, 28 days; conditions: Group 1 (n = 5 stents), 223 μg drug in polylactic acid on parylene C coated magnesium stent; 28 days post-implant
From the text: Coronary artery measurements were made from angiographic images before stent deployment, immediately after deployment, and twenty-eight days after deployment to determine the effectiveness of the coated stent in reducing restenosis. Determination of angiographic late loss was made by subtraction of the minimum vessel lumen diameter of the stented vessel at 28 days post-implant from the minimal vessel lumen diameter at the time of implant. Determination of percent diameter stenosis was made at 28 days post-implant by the calculation of 100(1-MLD/refdia.) where MLD represents the minimum vessel lumen diameter at 28 days post-implant and refdia. is the average diameter of the vessel sections adjacent to the stented vessel.

[3] = Drug elution and total recovery from polymer-coated stents; type: physicochemical; conditions: single stent, 1:1 drug/polylactic acid coating; 25% ethanol in water, 37° C., 168 hours elution plus exhaustive acetonitrile extraction
Protocol: This section examines the stability of the compounds of the invention when released from a reservoir over a several-day to several-week period. In one study, a series of stents were prepared with a suitable coating of drug/polymer mixture. The stents were fabricated from laser cut and electropolished 316L Stainless Steel and measured 16 millimeters in length. The coating mixture contained an equal weight of polylactic acid and each of the compounds to be evaluated. The mixture components were weighed, combined in a glass vial with acetone at room temperature and then vortexed until all of the materials dissolved. Each individual stent was weighed using a Mettler model XP105 balance. […]
After visual inspection the stents were mounted onto 3.0 mm×16 mm angioplasty balloons using a hand crimper. […] The appropriate pressure for inflation was determined using the inflation table applicable to the angioplasty catheter. […]
For elution comparison each stent was transferred into its respective 7-mL borosilicate vial and 4.0 mL 25% ethanol in water (w/w) elution medium was added. […] The amount of drug eluted during each time interval was determined by HPLC. After a cumulative incubation of 168 hours, the remaining drug in each stent was determined by exhaustive extraction by adding 4.0 mL acetonitrile to each stent for 20 minutes at ambient temperature followed by vortexing for 10 seconds. […]

[4] = Drug stability in rabbit vitreous humour at 37° C.; type: in vitro ADME, New Zealand White rabbit
From the text: (§1) The assay comparison between sirolimus and the compounds of the present invention (denoted as CRC) is further described at Table XI.

[5] = Drug stability in rabbit aqueous humour at 37° C.; type: in vitro ADME
From the text: as §1

[6] = 72 hours, drug dose 48.4 μg (SIR 1), 52.2 μg (CRC 1)
[7] = […], drug dose 47.8 μg (SIR 2), 54.0 μg (CRC 2)
[8] = 72 hours, drug dose 45.2 μg (SIR 1), 51.4 μg (CRC 1)

In the case of `COC1CC2CCC(C)C(O)(O2)C(=O)C(=O)N2CCCCC2C(=O)OC(C(C)CC2CCC(OC(=O)C3CC3)C(OC)C2)CC(=O)C(C)C=C(C)C(O)C(OC)C(=O)C(C)CC(C)C=CC=CC=C1C` (stereo not shown) [Compound 1, Rapamycin 40-O-Cyclic Hydrocarbon Ester with Cyclopropanecarbonyl Chloride], the “condition of stent coating after stent expansion (ductility)” value [1] is reported as “more ductile”.

For `CO[C@H]1C[C@@H]2CC[C@@H](C)[C@@](O)(O2)C(=O)C(=O)N2CCCC[C@H]2C(=O)O[C@H]([C@H](C)C[C@@H]2CC[C@@H](O)[C@H](OC)C2)CC(=O)[C@H](C)/C=C(\C)[C@@H](O)[C@@H](OC)C(=O)[C@H](C)C[C@H](C)/C=C/C=C/C=C/1C` [Rapamycin], the “Angiographic Late Loss” value [2] was 0.42 mm, the “Diameter Stenosis” value [2] was 13.1% and the “Total Drug (μg) Recovered” value [3] was 109.1 µg and 84.6 µg and 103.4 µg and 125.2 µg and 71.6 µg. For the same compound, the “Degradants (HPLC UV Area Percent)” value ([4]; 0 hrs) was 3%, the “Intact drug (HPLC UV Area Percent)” value ([4]; 0 hrs) was 97% and the “Degradants (HPLC UV Area Percent)” value ([4]; 1 hrs) was 3%. The “Intact drug (HPLC UV Area Percent)” value ([4]; 1 hrs) was 97%, the “Degradants (HPLC UV Area Percent)” value ([4]; 4 hrs) was 7% and the “Intact drug (HPLC UV Area Percent)” value ([4]; 4 hrs) was 93%. For the same compound, the “Degradants (HPLC UV Area Percent)” value ([4]; 24 hrs) was 43%, the “Intact drug (HPLC UV Area Percent)” value ([4]; 24 hrs) was 57% and the “Degradants (HPLC UV Area Percent)” value ([4]; 48 hrs) was 71%. For the same compound, the “Intact drug (HPLC UV Area Percent)” value ([4]; 48 hrs) was 29%, the “% Remaining (72 Hours)” value [4, 6] was 8% and the “Drug Remaining 72 Hours” value [4, 6] was 4.0 µg. For the same compound, the “Degradants (HPLC UV Area Percent)” value ([4]; 72 hrs) was 84%, the “Intact drug (HPLC UV Area Percent)” value ([4]; 72 hrs) was 16% and the “% Remaining (192 Hours)” value [4, 7] was 1%. For the same compound, the “Drug Remaining 192 Hours” value [4, 7] was 0.6 µg, the “Degradants (HPLC UV Area Percent)” value ([5]; 0 hrs) was 2% and the “Intact drug (HPLC UV Area Percent)” value ([5]; 0 hrs) was 98%. The “Degradants (HPLC UV Area Percent)” value ([5]; 1 hrs) was 4%, the “Intact drug (HPLC UV Area Percent)” value ([5]; 1 hrs) was 96% and the “Degradants (HPLC UV Area Percent)” value ([5]; 4 hrs) was 18%. For the same compound, the “Intact drug (HPLC UV Area Percent)” value ([5]; 4 hrs) was 82%, the “Degradants (HPLC UV Area Percent)” value ([5]; 24 hrs) was 86% and the “Intact drug (HPLC UV Area Percent)” value ([5]; 24 hrs) was 14%. For the same compound, the “Degradants (HPLC UV Area Percent)” value ([5]; 48 hrs) was 96%, the “Intact drug (HPLC UV Area Percent)” value ([5]; 48 hrs) was 4% and the “% Remaining (72 Hours)” value [5, 8] was 0%. For the same compound, the “Drug Remaining 72 Hours” value [5, 8] was 0.0 µg, the “Degradants (HPLC UV Area Percent)” value ([5]; 72 hrs) was 100% and the “Intact drug (HPLC UV Area Percent)” value ([5]; 72 hrs) was 0%.
